Laboratory results reported in patent US12723063B2, “GIPR-agonist compounds” (Eli Lilly and Company, priority 2019, dated 2026).
*1 amine or outer side, *2 acyl side, *3 side chain or, on linkers, in order; H or OH if unused. Where a SMILES comes first, the peptide text is derived from it. Side-chain parts run from the residue outwards. [ ]: non-standard residue; d: D form. The star is where a group is joined. C20 diacid = O=C(O)CCCCCCCCCCCCCCCCCCC(=O)*; γGlu = O=C(O)[C@H](CCC(=O)[*:2])N[*:1]; 4Pal = N[C@@H](Cc1ccncc1)C(=O)O; αMeL = CC(C)C[C@](C)(N)C(=O)O; Iva = CC[C@](C)(N)C(=O)O; Orn = NCCC[C@H](N)C(=O)O; AEEA = NCCOCCOCC(=O)O; Aib = CC(C)(N)C(=O)O

Assays:
[1] = target: T1, human GIPR (Homo sapiens, UniProt P48546); assay: [125I]-GIP binding, SPA with WGA beads, 0.1% bacitracin; details: geometric mean, read-out: hGIPR Ki
T1 construct: expressed in transfected cells; crude membranes
T1 sequence (P48546 22-466): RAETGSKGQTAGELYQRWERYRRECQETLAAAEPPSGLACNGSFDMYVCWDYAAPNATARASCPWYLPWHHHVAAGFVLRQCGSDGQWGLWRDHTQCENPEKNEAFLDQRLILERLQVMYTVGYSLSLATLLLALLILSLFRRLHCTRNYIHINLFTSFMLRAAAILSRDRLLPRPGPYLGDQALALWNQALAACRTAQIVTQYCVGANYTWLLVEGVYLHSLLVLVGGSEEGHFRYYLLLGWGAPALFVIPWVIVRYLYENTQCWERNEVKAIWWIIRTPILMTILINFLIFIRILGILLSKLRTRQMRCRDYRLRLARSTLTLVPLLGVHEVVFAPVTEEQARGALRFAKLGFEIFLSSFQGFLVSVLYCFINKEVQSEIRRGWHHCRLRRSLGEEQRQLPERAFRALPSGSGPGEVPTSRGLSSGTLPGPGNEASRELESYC
Procedure, shortened: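 Ki values are geometric means (SEM, n independent days), derived from four-parameter nonlinear regression of IC50. Membranes came from hGIPR-expressing CHO cells.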

[2] = target: T2, human GcgR (Homo sapiens, UniProt P47871); assay: [125I]-Glucagon binding, SPA with WGA beads, 0.1% bacitracin; details: geometric mean, read-out: hGcgR Ki
T2 construct: expressed in transfected cells; crude membranes
Procedure, shortened: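 SPA competition binding with WGA beads on crude membranes from HEK293 cells stably expressing hGcgR. Buffer: 25 mM HEPES pH 7.4, 2.5 mM CaCl2, 1 mM MgCl2, 0.1% bacitracin, 0.003% Tween-20; 10-point 3-fold dilutions, NSB with 1 μM Gcg.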

T2 sequence (P47871 26-477): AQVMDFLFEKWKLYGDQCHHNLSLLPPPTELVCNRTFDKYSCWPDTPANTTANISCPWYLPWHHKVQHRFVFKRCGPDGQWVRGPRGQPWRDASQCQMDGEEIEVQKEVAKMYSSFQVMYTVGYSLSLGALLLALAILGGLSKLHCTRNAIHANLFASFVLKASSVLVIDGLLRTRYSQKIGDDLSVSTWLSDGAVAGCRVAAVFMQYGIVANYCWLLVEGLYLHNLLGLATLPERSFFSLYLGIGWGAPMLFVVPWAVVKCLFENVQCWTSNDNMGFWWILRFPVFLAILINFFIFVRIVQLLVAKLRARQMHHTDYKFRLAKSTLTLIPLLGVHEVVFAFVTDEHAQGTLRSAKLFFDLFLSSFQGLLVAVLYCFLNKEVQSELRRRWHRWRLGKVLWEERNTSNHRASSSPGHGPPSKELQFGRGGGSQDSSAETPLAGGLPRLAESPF

`CC[C@H](C)[C@H](NC(=O)[C@H](Cc1ccccc1)NC(=O)[C@@H](NC(=O)CNC(=O)[C@H](CCC(=O)O)NC(=O)C(C)(C)NC(=O)[C@@H](N)Cc1ccc(O)cc1)[C@@H](C)O)C(=O)N[C@@H](CO)C(=O)N[C@@H](CC(=O)O)C(=O)N[C@@H](Cc1ccc(O)cc1)C(=O)N[C@@H](CO)C(=O)N[C@H](C(=O)N[C@@](C)(CC(C)C)C(=O)N[C@@H](CC(C)C)C(=O)N[C@@H](CC(=O)O)C(=O)N[C@@H](CCC(=O)O)C(=O)N[C@@H](CCCCNC(=O)COCCOCCNC(=O)COCCOCCNC(=O)CC[C@H](NC(=O)CCCCCCCCCCCCCCCCCCC(=O)O)C(=O)O)C(=O)N[C@@H](Cc1c[nH]cn1)C(=O)N[C@@H](CCC(N)=O)C(=O)NC(C)(C)C(=O)N[C@@H](CC(=O)O)C(=O)N[C@@H](Cc1ccccc1)C(=O)N[C@H](C(=O)N[C@@H](CCC(=O)O)C(=O)N[C@@H](Cc1ccncc1)C(=O)N[C@@H](CC(C)C)C(=O)N[C@@H](CC(C)C)C(=O)N[C@@H](C)C(=O)NCC(=O)NCC(=O)N1CCC[C@H]1C(=O)N[C@@H](CO)C(=O)N[C@@H](CO)C(=O)NCC(=O)N[C@@H](C)C(=O)N1CCC[C@H]1C(=O)N1CCC[C@H]1C(=O)N1CCC[C@H]1C(=O)N[C@@H](CO)C(N)=O)C(C)C)[C@@H](C)CC` [Example 86] was tested, and the Ki [1] was 0.0533 nM and the Ki [2] was 462 nM.

`CC[C@H](C)[C@H](NC(=O)[C@H](CCCN)NC(=O)[C@H](CC(=O)O)NC(=O)[C@H](CC(C)C)NC(=O)[C@](C)(CC(C)C)NC(=O)[C@@H](NC(=O)[C@H](CO)NC(=O)[C@H](Cc1ccc(O)cc1)NC(=O)[C@H](CC(=O)O)NC(=O)[C@H](CO)NC(=O)[C@@H](NC(=O)[C@H](Cc1ccccc1)NC(=O)[C@@H](NC(=O)CNC(=O)[C@H](CCC(=O)O)NC(=O)C(C)(C)NC(=O)[C@@H](N)Cc1ccc(O)cc1)[C@@H](C)O)[C@@H](C)CC)[C@@H](C)CC)C(=O)N[C@@H](Cc1c[nH]cn1)C(=O)N[C@@H](CCC(N)=O)C(=O)NC(C)(C)C(=O)N[C@@H](CCC(=O)O)C(=O)N[C@@H](Cc1ccccc1)C(=O)N[C@H](C(=O)N[C@H](CCC(=O)O)C(=O)N[C@@H](Cc1ccc(O)cc1)C(=O)N[C@@H](CCCCNC(=O)COCCOCCNC(=O)COCCOCCNC(=O)CC[C@H](NC(=O)CCCCCCCCCCCCCCCCCCC(=O)O)C(=O)O)C(=O)N[C@@H](CC(C)C)C(=O)N[C@@H](CCC(=O)O)C(=O)NCC(=O)NCC(=O)N1CCC[C@H]1C(=O)N[C@@H](CO)C(=O)N[C@@H](CO)C(=O)NCC(=O)N[C@@H](C)C(=O)N1CCC[C@H]1C(=O)N1CCC[C@H]1C(=O)N1CCC[C@H]1C(=O)N[C@@H](CO)C(N)=O)C(C)C` [Example 102] (H-Y[Aib]EGTFISDYSI[αMeL]LD[Orn]IHQ[Aib]EFV[dE]YK([AEEA-AEEA-γGlu-C20 diacid])LEGGPSSGAPPPS-NH2) gave a Ki [1] of 0.164 nM and a Ki [2] greater than 961 nM.

Molecule `CC[C@H](C)[C@H](NC(=O)[C@H](CO)NC(=O)[C@H](Cc1ccc(O)cc1)NC(=O)[C@H](CC(=O)O)NC(=O)[C@H](CO)NC(=O)[C@@H](NC(=O)[C@](C)(CC)NC(=O)[C@@H](NC(=O)CNC(=O)[C@H](CCC(=O)O)NC(=O)C(C)(C)NC(=O)[C@@H](N)Cc1ccc(O)cc1)[C@@H](C)O)[C@@H](C)CC)C(=O)N[C@@](C)(CC(C)C)C(=O)N[C@@H](CC(C)C)C(=O)N[C@@H](CC(=O)O)C(=O)N[C@@H](CCCCN)C(=O)N[C@@H](CCCCNC(=O)COCCOCCNC(=O)COCCOCCNC(=O)CC[C@H](NC(=O)CCCCCCCCCCCCCCCCCCC(=O)O)C(=O)O)C(=O)N[C@@H](Cc1c[nH]cn1)C(=O)N[C@@H](CCC(N)=O)C(=O)NC(C)(C)C(=O)N[C@@H](CC(=O)O)C(=O)N[C@@H](Cc1ccccc1)C(=O)N[C@H](C(=O)N[C@@H](CCC(=O)O)C(=O)N[C@@H](Cc1ccncc1)C(=O)N[C@@H](CC(C)C)C(=O)N[C@@H](CC(C)C)C(=O)N[C@@H](CCC(=O)O)C(=O)N[C@@H](C)C(=O)NCC(=O)N1CCC[C@H]1C(=O)N[C@@H](CO)C(=O)N[C@@H](CO)C(=O)NCC(=O)N[C@@H](C)C(=O)N1CCC[C@H]1C(=O)N1CCC[C@H]1C(=O)N1CCC[C@H]1C(=O)N[C@@H](CO)C(N)=O)C(C)C` [Example 88] (H-Y[Aib]EGT[Iva]ISDYSI[αMeL]LDKK([AEEA-AEEA-γGlu-C20 diacid])HQ[Aib]DFVE[4Pal]LLEAGPSSGAPPPS-NH2) has a Ki [1] of 0.083 nM and a Ki [2] of 788 nM.

In the case of `CC[C@H](C)[C@H](NC(=O)[C@H](Cc1ccccc1)NC(=O)[C@@H](NC(=O)CNC(=O)[C@H](CCC(=O)O)NC(=O)C(C)(C)NC(=O)[C@@H](N)Cc1ccc(O)cc1)[C@@H](C)O)C(=O)N[C@@H](CO)C(=O)N[C@@H](CC(=O)O)C(=O)N[C@@H](Cc1ccc(O)cc1)C(=O)N[C@@H](CO)C(=O)N[C@H](C(=O)N[C@@](C)(CC(C)C)C(=O)N[C@@H](CC(C)C)C(=O)N[C@@H](CC(=O)O)C(=O)N[C@@H](CCCN)C(=O)N[C@@H](CCCCNC(=O)COCCOCCNC(=O)COCCOCCNC(=O)CC[C@H](NC(=O)CCCCCCCCCCCCCCCCCCC(=O)O)C(=O)O)C(=O)N[C@@H](Cc1c[nH]cn1)C(=O)N[C@@H](CCC(N)=O)C(=O)NC(C)(C)C(=O)N[C@@H](CC(=O)O)C(=O)N[C@@H](Cc1ccccc1)C(=O)N[C@H](C(=O)N[C@@H](CCC(=O)O)C(=O)N[C@@H](Cc1ccncc1)C(=O)N[C@@H](CC(C)C)C(=O)N[C@@H](CC(C)C)C(=O)N[C@@H](CCC(=O)O)C(=O)N[C@H](C(=O)NCC(=O)N1CCC[C@H]1C(=O)N[C@@H](CO)C(=O)N[C@@H](CO)C(=O)NCC(=O)N[C@@H](C)C(=O)N1CCC[C@H]1C(=O)N1CCC[C@H]1C(=O)N1CCC[C@H]1C(=O)N[C@@H](CO)C(N)=O)[C@@H](C)O)C(C)C)[C@@H](C)CC` [Example 80] (H-Y[Aib]EGTFISDYSI[αMeL]LD[Orn]K([AEEA-AEEA-γGlu-C20 diacid])HQ[Aib]DFVE[4Pal]LLETGPSSGAPPPS-NH2), the Ki [1] is reported as 0.0828 nM and the Ki [2] is reported as greater than 958 nM.

`CC[C@H](C)[C@H](NC(=O)[C@H](CCCCN)NC(=O)[C@H](CC(=O)O)NC(=O)[C@H](CC(C)C)NC(=O)[C@](C)(CC(C)C)NC(=O)[C@@H](NC(=O)[C@H](CO)NC(=O)[C@H](Cc1ccc(O)cc1)NC(=O)[C@H](CC(=O)O)NC(=O)[C@H](CO)NC(=O)[C@@H](NC(=O)[C@H](Cc1ccccc1)NC(=O)[C@@H](NC(=O)CNC(=O)[C@H](CCC(=O)O)NC(=O)C(C)(C)NC(=O)[C@@H](N)Cc1ccc(O)cc1)[C@@H](C)O)[C@@H](C)CC)[C@@H](C)CC)C(=O)N[C@@H](Cc1c[nH]cn1)C(=O)N[C@@H](CCC(N)=O)C(=O)NC(C)(C)C(=O)N[C@@H](CC(=O)O)C(=O)N[C@@H](Cc1ccccc1)C(=O)N[C@H](C(=O)N[C@@H](CCC(=O)O)C(=O)N[C@@H](Cc1ccc(O)cc1)C(=O)N[C@@H](CCCCNC(=O)COCCOCCNC(=O)COCCOCCNC(=O)CC[C@H](NC(=O)CCCCCCCCCCCCCCCCCCC(=O)O)C(=O)O)C(=O)N[C@@H](CC(C)C)C(=O)N[C@@H](CCC(=O)O)C(=O)N[C@@H](CCC(N)=O)C(=O)NCC(=O)N1CCC[C@H]1C(=O)N[C@@H](CO)C(=O)N[C@@H](CO)C(=O)NCC(=O)N[C@@H](C)C(=O)N1CCC[C@H]1C(=O)N1CCC[C@H]1C(=O)N1CCC[C@H]1C(=O)N[C@@H](CO)C(N)=O)C(C)C` [Example 92] (H-Y[Aib]EGTFISDYSI[αMeL]LDKIHQ[Aib]DFVEYK([AEEA-AEEA-γGlu-C20 diacid])LEQGPSSGAPPPS-NH2) gave a Ki [1] of 0.0331 nM and a Ki [2] greater than 958 nM.
